Measured values reported in patent US20130288991A1, “BLOCK COPOLYMERS FOR STABLE MICELLES” (Intezyne Technologies, Inc., priority 2012, published 2013).

How the values were obtained:
in vivo [1] = test: in vivo; design: species or system Fisher rats; details: Fisher, rat, iv, 10 mg/kg
Protocol: The delivery vehicle for drug administration was isotonic saline. […] Samples were analyzed on a Waters Alliance 2695 equiped with a 2475 fluorescence detector (Ex=470 nm; Em=580). A 5 μL sample injection was made onto a Waters 4 μm Nova Pak C18 (3.9×150 mm) at 30° C. with a flow rate of 0.750 mL per minute of 10 mM phosphate buffer (pH=1.4), methanol and acetonitrile (gradient from 70/10/20 to 40/10/50 for buffer/methanol/acetonitrile was made over eight minutes). Analyte eluted at 5.9 minutes under these conditions, was normalized to the internal standard, and quantitated using a standard curve comprised of seven standards.

A549 lung cancer cells = test: In-vitro cytotoxicity of aminopterin formulations (cell titer-glo); assay type: cell-based; details: read-out: IC50 (cell viability inhibited by 50%); A549, 72 hours
Protocol: (§1) Cells originally purchased from ATCC (A549, Panc-1, OVCAR3, and BXPC-3) were seeded in 96 well tissue culture plates to be 50% confluent by 24 hours. Cells were incubated at 37° C. with 5.0% CO2. Cells were treated with escalading doses of free aminopterin, crosslinked aminopterin formulation, uncrosslinked aminopterin formulation, and non drug-loaded micelle formulations 24 hours after plate seeding. Free aminopterin was dissolved in DMSO and administered to cells with a total volume of DMSO equal to or less than 0.0025%. Micelle formulations were re-suspended in biology grade water. Dilutions were done in deep well plates with cell media and water or DMSO (for free aminopterin only) equalizing displaced volume. Incubation media was aspirated from the 96 well plates and 100 μl of each dilution was added to the wells in triplicate and incubated over 72 hours at 37° C. with 5.0% CO2. Crosslinked and uncrosslinked non drug-loaded micelle formulations were administered at the four highest doses and were calculated at comparative mg/ml concentrations to drug-loaded micelle concentrations of delivery vehicle. After 72-hour incubation, plates were allowed to cool to room temperature and 25 μl of cell titer-glo was added to each well. Plates were briefly shaken to mix and luminescence readings were read on a plate reader. Luminescence reading for triplicate doses are averaged and divided by average luminescence readings from untreated cells on the same plate to calculate the % of viable cells per dose.
(§2) The aminopterin loaded micelles from Example 119 and Example 121 were tested for cytotoxicity compared to free aminopterin and the crosslinked and uncrosslinked non drug-loaded micelle formulations (from polymer of Example 18) against A549 lung, OVCAR3 ovarian, PANC-1 (folate receptor +) pancreatic and BxPC3 (folate receptor −) pancreatic cancer cell lines. The cytotoxicity profiles for each treatment for each cell line in FIG. 14 (A549 Lung), FIG. 15 (OVCAR3 Ovarian), FIG. 16 (PANC-1 Pancreatic), and FIG. 17 (BxPC3 pancreatic). […] Treatment with both uncrosslinked and crosslinked non drug-loaded micelles was well tolerated, with greater than 80% viability for all cells tested.

[2] = system: BxPC3 pancreatic (folate receptor −) cancer cells; test: as above; assay type: cell-based; details: BxPC3, 72 hours
Protocol: as §1, §2

[3] = system: OVCAR3 ovarian cancer cells; test: as above; assay type: cell-based; details: OVCAR3, 72 hours
Protocol: as §1, §2

[4] = system: PANC-1 pancreatic (folate receptor +) cancer cells; test: as above; assay type: cell-based; details: read-out: IC50 (cell viability inhibited by 50%); PANC-1, 72 hours
Protocol: as §1, §2

[5] = Fisher, rat, in vivo, iv, 5 mg/kg
in vivo [6] = details: Fisher, rat, iv, 5 mg/kg
[7] = system: HCT-116 colon cancer cells; test: Anti-tumor efficacy of SN-38 micelles in HCT-116 xenograft model; assay type: in vivo, mice; details: irinotecan at 50 mg/kg, IV 3×QW

In the case of `COc1cccc2c1C(=O)c1c(O)c3c(c(O)c1C2=O)C[C@@](O)(C(C)=O)C[C@@H]3O[C@H]1C[C@H](N)[C@H](O)[C@H](C)O1` [free daunorubicin, daunorubicin], the AUC (in vivo [1]) is reported as 1300 ng·h/mL, the Cmax (in vivo [1]) is reported as 3300 ng/mL and the “Half-life (terminal, elimination)” value (in vivo [1]) is reported as 3.3 h. The half-life (in vivo [1]; Half-life (terminal, elimination)) was 3.4 h.
In the case of `Nc1nc(N)c2nc(CNc3ccc(C(=O)N[C@@H](CCC(=O)O)C(=O)O)cc3)cnc2n1` [Aminopterin, aminopterin], the IC50 (A549 lung cancer cells) is reported as 7 to 25 nM, the “IC50 (cell viability inhibited by 50%)” value [2] is reported as “no IC50 was obtained” and the “IC50 (cell viability inhibited by 50%)” value [3] is reported as “no IC50 was obtained”. The IC50 [4] was 7 to 25 nM.
For `CO[C@H]1C(=O)[C@]2(C)[C@@H](OC)C[C@H]3OC[C@@]3(OC(C)=O)[C@H]2[C@H](OC(=O)c2ccccc2)[C@]2(O)C[C@H](OC(=O)[C@H](O)[C@@H](NC(=O)OC(C)(C)C)c3ccccc3)C(C)=C1C2(C)C` [free cabizataxel, cabazitaxel], the “Exposure of cabazitaxel to the plasma compartment over 15 minutes” value [5] was 200 ng·h/mL and the Cmax (in vivo [6]) was 1200 ng/mL.
For `CCc1c2c(nc3ccc(OC(=O)N4CCC(N5CCCCC5)CC4)cc13)-c1cc3c(c(=O)n1C2)COC(=O)[C@]3(O)CC` [irinotecan], the “Mean tumor growth rate” value [7] was 18.9 mm^3 per day.
